Paper PMC5099578, “A structural and functional study on the 2-C-methyl-D-erythritol-4-phosphate cytidyltransferase (IspD) from Bacillus subtilis” (Scientific Reports, 2016)

Molecular target: T1, BsIspD (Bacillus subtilis, UniProt Q06755)
T1 construct: gene ispD; full length (699 bp gene, 232 residues built); pGEX-6P-1, expressed in E. coli, GST tag cut with PreScission protease; homodimer
Assay: X-ray crystal structure of the complex, […] Å
Format: binding
Settings: co-crystallised with 10 mM CTP and 10 mM MgCl2; active site, one CTP and one Mg2+ in molecule D only

T1 sequence (Q06755 whole entry): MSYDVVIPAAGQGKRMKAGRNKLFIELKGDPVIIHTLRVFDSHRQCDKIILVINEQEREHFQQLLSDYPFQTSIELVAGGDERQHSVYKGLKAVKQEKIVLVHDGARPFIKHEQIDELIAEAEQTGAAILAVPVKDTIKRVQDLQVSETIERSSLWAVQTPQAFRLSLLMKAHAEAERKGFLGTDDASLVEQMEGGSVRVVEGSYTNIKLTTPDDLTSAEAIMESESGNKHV

In the case of Nc1ccn([C@@H]2O[C@H](COP(=O)(O)OP(=O)(O)OP(=O)(O)O)[C@@H](O)[C@H]2O)c(=O)n1 [CTP], the “X-ray crystal structure of the complex, 1.90 Å” value is reported as “One CTP molecule and one magnesium ion were observed binding to the molecule D”.
